What all share (format): in vivo
For experiment [1], the system named is Amaranthus powelli (Powell's Amaranth), Group 2,5 resistant. Description: Post-emergent treatment of potted weeds with herbicide composition, 7 day growth (FIG. 1). The settings on record: 1% Juglone, weeds about 0-2 weeks post emergent (about 2-5 cm), 7 days after treatment. As for the experimental part:
(§1) Referring now to the figures, pictures of various weeds are shown herein after being treated with an herbicide composition described herein. In all of the pictures provided herein, weeds that were about 0-2 weeks post emergent (e.g. about 2-5 cm in height) were treated with an herbicide composition having a 1% Juglone concentration. In most cases, plant damage was observed within two hours of treatment of the weeds with the herbicide composition.
Specifically, FIG. 1 is a picture of three pots showing 7 day growth of Amaranthus powelli (Powell's Amaranth), Group 2,5 resistant, when left untreated, treated with 1% Juglone, and treated with a control (i.e. solvent/surfactant, no active ingredient), respectively.

The next experiment relates to weeds. Description: Onset of plant damage after treatment of weeds with herbicide composition. Conditions: 1% Juglone concentration; weeds about 0-2 weeks post emergent; in most cases. As for the experimental part: as §1
The subject of experiment [2] is Solanum ptycanthum (eastern black nightshade), Group 2 Resistant. The experiment can be described thus: Post-emergent treatment of potted weeds with herbicide composition, 7 day growth (FIG. 6). Conditions: 1% Juglone; weeds about 0-2 weeks post emergent (about 2-5 cm); 7 days after treatment. The method, then:
as §1
FIG. 6 is a picture of two pots showing 7 day growth of Solanum ptycanthum (eastern black nightshade), Group 2 Resistant, when left untreated and treated with […] Juglone, respectively.

Experiment [3] deals with Amaranthus retroflexus L. (pigweed), Group 2,5 Resistant. The experiment can be described thus: Post-emergent treatment of potted weeds with herbicide composition, 7 day growth (FIG. 5). Conditions: 1% Juglone; weeds about 0-2 weeks post emergent (about 2-5 cm); 7 days after treatment. The method, then: as §1
FIG. 5 is a picture of two pots showing 7 day growth of Amaranthus retroflexus L. (pigweed), Group 2,5 Resistant, when left untreated and treated with 1% Juglone, respectively.

The subject of experiment [4] is Amaranthus rudis JD Sauer (Waterhemp), Group 2,4,5,14,9,27 Resistant. The experiment can be described thus: Post-emergent treatment of potted weeds with herbicide composition, 7 day growth (FIG. 2). The settings on record: 1% Juglone; weeds about 0-2 weeks post emergent (about 2-5 cm); 7 days after treatment. As for the experimental part:
as §1
FIG. 2 is a picture of three pots showing 7 day growth of Amaranthus rudis JD Sauer (Waterhemp), Group 2,4,5,14,9,27 Resistant, when left untreated, treated with 1% Juglone, and treated with a control (i.e. solvent/surfactant, no active ingredient), respectively.

Experiment [5] deals with Amaranthus hybridus L. (smooth pigweed), Group 2,5 Resistant. The experiment can be described thus: Post-emergent treatment of potted weeds with herbicide composition, 7 day growth (FIG. 7). Conditions: 1% Juglone; weeds about 0-2 weeks post emergent (about 2-5 cm); 7 days after treatment. As for the experimental part: as §1
FIG. 7 is a picture of three pots showing 7 day growth of Amaranthus hybridus L. (smooth pigweed), Group 2,5 Resistant, when left untreated, treated with 1% Juglone, and treated with a control (i.e. solvent/surfactant, no active ingredient), respectively.

The test system of experiment [6] is Amaranthus rudis JD Sauer (Waterhemp), non-resistant. The experiment can be described thus: Post-emergent treatment of potted weeds with herbicide composition, 7 day growth (FIG. 3). Conditions: 1% Juglone; weeds about 0-2 weeks post emergent (about 2-5 cm); 7 days after treatment. The method, then:
as §1
FIG. 3 is a picture of three pots showing 7 day growth of Amaranthus rudis JD Sauer (Waterhemp), non-resistant, when left untreated, treated with 1% Juglone, and treated with a control (i.e. solvent/surfactant, no active ingredient), respectively.

The subject of experiment [7] is Chenopodium album L. (lamb's quarters), Group 2,5 Resistant. Description: Post-emergent treatment of potted weeds with herbicide composition, 7 day growth (FIG. 4). The settings on record: 1% Juglone; weeds about 0-2 weeks post emergent (about 2-5 cm); 7 days after treatment. As for the experimental part:
as §1
FIG. 4 is a picture of three pots showing 7 day growth of Chenopodium album L. (lamb's quarters), Group 2,5 Resistant, when left untreated, treated with 1% Juglone, and treated with a control (i.e. solvent/surfactant, no active ingredient), respectively.

Entries after “also recorded” stand apart in the source; their conditions may differ.

As to `O=C1C=CC(=O)c2c(O)cccc21` [Juglone, 5-hydroxy-1,4-naphthalenedione], the “control of growth of Amaranthus powelli” value in experiment [1] was “effectively controlled the growth”. Moreover, in the experiment on weeds, the “time to observed plant damage after treatment” value is “two”. The “control of growth of Solanum ptycanthum (eastern black nightshade), Group 2 Resistant” value in experiment [2] is “effectively controlled the growth”. Also, in experiment [3], the “control of growth of Amaranthus retroflexus L. (pigweed), Group 2,5 Resistant” value was “effectively controlled the growth”. In experiment [4], the “control of growth of Amaranthus rudis JD Sauer (Waterhemp), Group 2,4,5,14,9,27 Resistant” value is “effectively controlled the growth; also recorded: did control the growth”. For the same compound, the “control of growth of Amaranthus hybridus L. (smooth pigweed), Group 2,5 Resistant” value in experiment [5] is on record as “effectively controlled the growth”. In experiment [6], the “control of growth of Amaranthus rudis JD Sauer (Waterhemp), non-resistant” value is given as “did not effectively control the growth”. For the same compound, the “control of growth of Chenopodium album L. (lamb's quarters), Group 2,5 Resistant” value in experiment [7] is “effectively controlled the growth”.
